Measurements as given in US20130197030A1, “Substituted 1,3-Dioxanes and There Uses” (Evolva Sa, priority 2007, published 2013).

Assays:
KKA^y mice = assay: In vivo effect on serum glucose and other parameters in KKA^y mice; details: dose not given
Method: 52 male KKA^y mice are obtained commercially (e.g., from Clea Japan) at an age of 6 weeks and put on a high fat diet upon arrival. Individual mice were housed in IVC Type II cages during both the acclimatization and the experimental phase. Both food (high fat diet) and water are supplied ad libitum.
1 animal per cage. […] Lights on at 06:00 a.m. Temperature: 21-25° C. Relative humidity target range: 55-60%.
Mice were randomized into treatment groups according to their 4-h fasting blood glucose.
4 hours after the last administration, non-fasting conditions.
Gamma irradiated high fat diet is commercially available (e.g., Research Diets, Inc. New Brunswick, N.J. (Product # D12266BI)).
Blood is collected into heparin containing glass capillaries which are subsequently centrifuged in a “Haematokrit 24” centrifuge (Hettich) at 15′200×g for 10 minutes at room temperature to obtain the hematocrit value.
The following serum parameters are determined on a COBAS INTEGRA 800 auto analyzer (Roche Diagnostics, Switzerland) using the reagents and protocols provided by the supplier.
All measurements are made on Day 14 of administration, except for the food intake and body weight measurements that are made on Day 12.

[1] = target: T1, Thromboxane receptor (TP) (Homo sapiens, UniProt P21731); assay: TP receptor radioligand binding; details: Human recombinant HEK-293 cells, 5 nM [3H] SQ-29548
T1 construct: expressed in transfected cells; host or cells: HEK-293 cells
T1 sequence (P21731 1-343): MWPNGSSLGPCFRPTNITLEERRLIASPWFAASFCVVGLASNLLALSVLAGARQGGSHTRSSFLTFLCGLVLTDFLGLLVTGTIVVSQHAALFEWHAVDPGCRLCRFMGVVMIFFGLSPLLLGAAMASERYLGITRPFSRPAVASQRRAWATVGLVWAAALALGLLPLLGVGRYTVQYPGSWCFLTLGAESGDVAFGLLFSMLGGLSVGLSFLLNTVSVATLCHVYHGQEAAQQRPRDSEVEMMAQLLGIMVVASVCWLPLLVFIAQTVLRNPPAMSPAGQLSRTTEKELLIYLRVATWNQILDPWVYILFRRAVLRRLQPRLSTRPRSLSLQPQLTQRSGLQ
Method: The compounds were tested on radioligand binding assays for thromboxane receptor binding essentially as described by Hedberg et al. (1988) J. Pharmacol. Exp. Ther. 245:786-792 and Saussy et al. (1986) J. Biol. Chem. 261: 3025-3029 according to the following:
TP Receptor Radioligand Binding Studies:
Human recombinant HEK-293 cells,
Incubation Time, Temp: 30 minutes at 25° C.
Incubation Buffer: 50 mM Tris-HCl, pH 7.4, 154 mM NaCl
Non-Specific Ligand: 1 μM SQ-29548
The data were transformed to semi-log and then analysed using non-linear regression to a four-parameter dose-response curve Y=Bottom+(Top−Bottom)/(1+10̂((LogEC50−X)*HillSlope)) using the log(agonist) vs. response—Variable slope function of GraphPad Prism software (http://graphpad.com/help/prism5/prism5help.html?usingnonlinear_regression_step_by_s.htm).

Thromboxane synthase = target: T2, Thromboxane synthase (Homo sapiens, UniProt P24557); assay: Human platelet thromboxane synthase assay; format: biochemical
T2 construct: Human Platelet Thromboxane Synthase Assay; from tissue; host or cells: human platelets
T2 sequence (P24557 1-533): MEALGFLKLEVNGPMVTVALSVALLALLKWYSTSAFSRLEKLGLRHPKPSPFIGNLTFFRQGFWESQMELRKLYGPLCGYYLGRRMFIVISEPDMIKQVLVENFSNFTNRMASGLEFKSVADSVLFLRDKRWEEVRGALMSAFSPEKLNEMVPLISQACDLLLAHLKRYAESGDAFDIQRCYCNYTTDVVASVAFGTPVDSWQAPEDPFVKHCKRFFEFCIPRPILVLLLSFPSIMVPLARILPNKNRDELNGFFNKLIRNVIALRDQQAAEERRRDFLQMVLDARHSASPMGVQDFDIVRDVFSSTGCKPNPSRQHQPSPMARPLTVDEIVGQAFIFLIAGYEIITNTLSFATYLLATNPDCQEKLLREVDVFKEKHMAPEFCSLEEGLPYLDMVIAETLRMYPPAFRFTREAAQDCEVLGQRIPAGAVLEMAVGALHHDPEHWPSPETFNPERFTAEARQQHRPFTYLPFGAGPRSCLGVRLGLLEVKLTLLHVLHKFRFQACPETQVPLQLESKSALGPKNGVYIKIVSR
Method: The compounds were tested for thromboxane synthase inhibition essentially as described by Borsch-Haubold A G, Pasquet S, Watson S P. (1998). Direct inhibition of cyclooxygenase-1 and -2 by the kinase inhibitors SB 203580 and PD 98059. […] 1. Imidazole derivatives. J Med. Chem. (10):1139-48 according to the following:
Pre-incubation time, temp: 15 minutes at 25° C. Incubation time, temp: 3 minutes at 25° C.
Incubation Buffer: 10 mM Tris-HCl, pH 7.4
Quantification Method: ETA quantification of TxB2

- Heart weight (KKA^y mice; 14-day oral gavage BID): has no effect on heart weight
- IC50 [1]: 15.2 nM
- Ki [1]: 9.9 nM
- inhibition at 10 µM ([1]; at 10 μM): 97%
- IC50 (Thromboxane synthase): 56 nM
- inhibition at 5 µM (Thromboxane synthase; at 5 μM): 94%
SMILES: O=C(O)CC/C=C\CC1COC(c2coc3ccc(Cl)cc3c2=O)OC1c1ccccc1O (racemic) [Compound 3, (Z)-6-(2-(6-Chloro-4-oxo-4H-chromen-3-yl)-4-(2-hydroxyphenyl)-1,3-dioxan-5-yl)hex-4-enoic acid]
- FFA (KKA^y mice; 14-day oral gavage BID): decreases the FFA
- HbA1c levels (KKA^y mice; 14-day oral gavage BID): decreased
- Body weight (KKA^y mice; oral gavage BID): do not alter body weight
- Inhibition of thromboxane synthase (in words) (Thromboxane synthase): potent inhibitors of thromboxane synthase
